The values below come from patent US20250114430A1, “MODIFIED PEPTIDOMIMETICS AND METHODS OF USE” (The University of North Carolina at Chapel Hill, priority 2021, published 2025).

Non-standard residues stand in square brackets, D forms with d. No end group written: not given here.

One may read the IC50 as the concentration needed to halve the response being measured.

Data set [1] deals with P. aeruginosa. In words: P. aeruginosa infection in WT mice, ELD607 versus comparators. Type of data set: in vivo. Conditions: WT mice infected with P. aeruginosa. From the text: We then infected WT mice with P. aeruginosa and treated with ELD607, the Orai1 small molecule antagonist […], dexamethasone or scrambled ELD607.
In data set [2] the test system is P. aeruginosa. The data set can be described thus: P. aeruginosa growth in the presence of peptide. Format: cell-based. Conditions: in vitro.
For data set [3], the target named is T1, human neutrophil elastase (Homo sapiens, UniProt P08246).
T1 sequence (P08246 30-267): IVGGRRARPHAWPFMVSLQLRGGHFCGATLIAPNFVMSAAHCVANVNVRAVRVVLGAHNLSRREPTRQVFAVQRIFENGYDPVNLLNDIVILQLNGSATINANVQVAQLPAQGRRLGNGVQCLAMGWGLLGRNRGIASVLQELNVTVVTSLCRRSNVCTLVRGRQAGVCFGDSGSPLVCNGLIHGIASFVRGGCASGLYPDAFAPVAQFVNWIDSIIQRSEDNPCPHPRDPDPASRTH
Format: in vitro ADME. As for the experimental part:
Peptides were exposed to NE over time, and the reaction was stopped by addition of sivelestat. HPLC was then performed in order to determine peptide stability. N=3-4 replicates per time point.
HEK293T cells were plated and incubated for 2 hours with Fluo-4 plus or minus ELD peptides, with fluorescent images taken every 30 seconds for 2-6 minutes at excitation/emission wavelengths of 488/530 nm. […] Candidate peptides ELD604, 607, 601, and 100 were tested for resistance against protease degradation, wherein the peptides were incubated with neutrophil elastase, treated with the elastase inhibitor sivelestat at various timepoints to halt ongoing reactions, and then analyzed by HPLC (FIG. 9).
Endogenous Orai1/store operated Ca^2+ influx have been extensively studied in HEK293T cells, so this cell type was used to understand ELD607-Orai1 interactions. […] Thapsigargin is a SERCA pump inhibitor that prevents uptake of cytosolic Ca^2+ into the endoplasmic reticulum. Thapsigargin is commonly used to stimulate Orai1/store operated Ca^2+ influx. […] Dynamic light scattering (DLS) was used to evaluate binding of ELD607 to peptides of Orai1 extracellular loops. […] Thus, it was concluded that ELD607 interacts with Orai1.

In the next data set the target is Orai1 (Homo sapiens, UniProt Q96D31). The data set can be described thus: Dose response of Ca^2+ influx (SOCE), Ca^2+ add back approach, HEK293T cells. Type of data set: cell-based. Also noted: Endogenous Orai1/store operated Ca^2+ influx have been extensively studied in HEK293T cells; endogenous in cells; host or cells: HEK293T. As for the experimental part:
HEK293T cells were cultured in 384 well plates. Cells were then exposed to vehicle or […] ELD607 for 1 h. 100 nM thapsigargin was then added followed by extracellular Ca^2+ to differentiate ER Ca^2+ release and SOCE. n=8-12 cultures per data point.
ELD607 requires Orai1 expression to inhibit Ca^2+ signaling. […] Using this approach, curves were fitted to the data and the 50% inhibitory concentrations (IC50S) were calculated.

Data set [4] concerns SARS-CoV-2 S1 pseudovirus. Format: cell-based.
In another data set the test system is HEK293T cells. In words: Cytoplasmic Ca^2+ (Fluo-4) in HEK293T cells incubated with ELD peptides. Type of data set: cell-based. Conditions: 2 hours with Fluo-4 plus or minus peptide.

Orai1, sequence (Q96D31 whole entry): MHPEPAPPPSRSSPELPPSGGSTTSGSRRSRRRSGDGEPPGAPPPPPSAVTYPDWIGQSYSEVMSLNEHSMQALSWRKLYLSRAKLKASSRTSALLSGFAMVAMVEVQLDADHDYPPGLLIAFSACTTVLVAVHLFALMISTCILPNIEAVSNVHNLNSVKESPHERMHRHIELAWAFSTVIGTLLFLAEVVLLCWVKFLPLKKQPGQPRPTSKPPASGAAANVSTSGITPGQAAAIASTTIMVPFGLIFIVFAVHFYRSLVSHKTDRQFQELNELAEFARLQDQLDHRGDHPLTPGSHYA

Turning to `Cc1nnsc1C(=O)Nc1ccc(-n2nc(C(F)(F)F)cc2C(F)(F)F)cc1` [YM-58453, reference compound], in the data set with P. aeruginosa [1], the “neutrophilia, weight loss, bacterial infections and lung macrophage levels (these parameters)” value is reported as “neither −58453, dexamethasone nor scrambled ELD607 had any significant effects”.

With `O=C(O)c1cn(C2CC2)c2cc(N3CCNCC3)c(F)cc2c1=O` [ciproflaxin, reference compound], the P. aeruginosa growth result in the data set on P. aeruginosa [2] is given as “fully inhibited bacterial growth”.

For “DITLVHDIVNMLIHGL [ELD100, DITLVHDIVNMLIHGL]”, the “stability against neutrophil elastase” value in data set [3] is given as “not neutrophil elastase resistant”. Further, the IC50 on Orai1 (Ca^2+ influx, HEK293T, 100 nM thapsigargin, read-out: IC50 (Molar)) is 37 nM. Moreover, the “Bottom (%)” value at Orai1 (fitted curve bottom, text: maximal inhibitions) is 57.03%. On to HDINMLIHG [ELD601, HDINMLIHG], for which the “stability against neutrophil elastase” value in data set [3] is recorded as “still degraded by elastase”. For “a-HDIVNMLIH-a ([dA]HDIVNMLIH[dA]) [ELD604]”, the “pseudovirus infection (% DsRed-positive cells)” value in data set [4] is given as “inhibited viral replication”. The “cytoplasmic calcium levels as compared to a control scrambled peptide” value in the data set on HEK293T cells is reported as “reduced cytoplasmic calcium levels”. For the same molecule, in data set [3], the “stability against neutrophil elastase” value is on record as “significantly more stable”.

Regarding “n-VHDIVNMLIHG-n (VHDIVNMLIHG-NH2; not fully specified; also: N-terminal amidation) [ELD621]”, in data set [4], the “pseudovirus infection (% DsRed-positive cells)” value is “inhibited viral replication”. Moreover, in the data set with HEK293T cells, the “cytoplasmic calcium levels as compared to a control scrambled peptide” value is given as “reduced cytoplasmic calcium levels”.
